From patent US11072611B2, “Compounds and pharmaceutical compositions thereof for the treatment of inflammatory disorders” (Galapagos NV, priority 2013, dated 2021)

Tested on: tobacco smoke induced recruitment of inflammatory cells to the lungs
Assay: Tobacco smoke (TS) model, lungs inflammatory cells recruitment
Format: in vivo, female C57BL/6J mice
Details: 3 mg/kg twice daily p.o., TS-exposed mice
Experimental: The aim of this experiment is to evaluate the efficacy and potency of a test compound administered p.o., once or twice daily on days 6 to 11, vs reference compounds, on pulmonary inflammation induced by 11 days of TS-exposure in female C57BL/6J mice, by assessing the effect of a test compound on the tobacco smoke induced recruitment of inflammatory cells to the lungs.
The test compounds are formulated in PEG200/0.5% methylcellulose (25/75, v/v) and are given at a dose volume of 10 mL/kg. Roflumilast and Dexamethasone are included as positive […] control, respectively. Each treatment group consists of 10 mice.
A first group of mice is subjected to daily TS-exposure for 5 consecutive days and sacrificed on the day 6, 24 h after the final TS-exposure.
A second group is exposed to air for 5 consecutive days (sham exposure) and sacrificed on the day 6, 24 h after the final air-exposure.
Compound and reference-treated groups are subjected to daily TS-exposure for 11 consecutive days and sacrificed on the day 12, 24 h after the final TS-exposure. Mice are dosed p.o. on days 6 to 11, twice daily, 1 h prior to and 6 h after each TS-exposure, with either vehicle, or the test compound at 3, 5, 10 or 30 mg/kg. Another group is dosed p.o. on days 6 to 11, once daily, 1 h prior to each TS-exposure, with either vehicle, or the test compound at 10 mg/kg.
An additional group is dosed p.o., once daily, on days 6 to 11, with roflumilast at 5 mg/kg, 1 h prior to each TS-exposure. Dexamethasone is dosed p.o., twice daily, on days 6 to 11, at 0.3 mg/kg, 1 h prior to and 6 h after each TS-exposure.
For each mouse, a BAL is performed using 0.4 mL of PBS. The lavage fluid is centrifuged, the supernatant removed and the resulting cell pellet re-suspended for total cell counts and cytospin slide preparation. […]
The lungs are dissected out and the left lobes are removed, snap-frozen and stored at −80° C. […] Cell data are presented as individual data points for each animal and the mean value calculated for each group. […]
Percentage inhibitions for the cell data are calculated using the formula below: […]

SMILES	number of cells recovered in the BALF (macrophage cells, epithelial cells, neutrophils)
CCc1nc2c(C)cc(N3CCN(CC(=O)N4CC(O)C4)CC3)cn2c1N(C)c1nc(-c2ccc(F)cc2)c(C#N)s1 [Compound 2, 2-((2-ethyl-6-(4-(2-(3-hydroxyazetidin-1-yl)-2-oxoethyl)piperazin-1-yl)-8-methylimidazo[1,2-a]pyridin-3-yl)(methyl)amino)-4-(4-fluorophenyl)thiazole-5-carbonitrile]	significantly inhibited

Same assay, conditions: 10 mg/kg twice daily p.o., TS-exposed mice

SMILES	number of cells recovered in the BALF (macrophage cells, epithelial cells, neutrophils)
CCc1nc2c(F)cc(N3CCN(CC(=O)N4CC(O)C4)CC3)cn2c1N(C)c1nc(-c2ccc(F)cc2)c(C#N)s1 [Compound 12, 2-((2-ethyl-8-fluoro-6-(4-(2-(3-hydroxyazetidin-1-yl)-2-oxoethyl)piperazin-1-yl)imidazo[1,2-a]pyridin-3-yl)(methyl)amino)-4-(4-fluorophenyl)thiazole-5-carbonitrile]	significantly inhibited
CCc1nc2c(C)cc(N3CCN(CC(=O)N4CC(O)C4)CC3)cn2c1N(C)c1nc(-c2ccc(F)cc2)c(C#N)s1 [Compound 2, 2-((2-ethyl-6-(4-(2-(3-hydroxyazetidin-1-yl)-2-oxoethyl)piperazin-1-yl)-8-methylimidazo[1,2-a]pyridin-3-yl)(methyl)amino)-4-(4-fluorophenyl)thiazole-5-carbonitrile]	significantly inhibited

Tested on: LPA 18:2
Assay: Human whole blood (plasma) LPA assay
Format: biochemical
Details: 2 h at 37° C., LPA 18:2 by LC-MS/MS
Experimental: (§1) Blood is collected from healthy volunteers who gave informed consent into sodium heparin tubes by venipuncture, then gently inverted several times to prevent clotting. Tubes are centrifuged at 3000 rpm for 15 min at 4° C. then plasma is stored at −80° C. Compounds are diluted in DMSO in concentration dependent manner then 0.5 μL are dispensed into 96-well plate placed in ice. Plasma is defrosted on ice then 49.5 μL of plasma are added into the well containing 0.5 μL of compound (1% DMSO final). Plates are covered with a lid in polypropylene and incubated at +37° C., 5% CO2, for 2 h under gentle shaking (except controls which are stored at −20° C.).
(§2) At the end of the incubation, controls are defrosted in ice and transferred in the incubated plates for LC-MS/MS analysis with a non GLP-validated method. For the analysis, plasma proteins from a 10 μL incubated plates are precipitated with an excess of methanol containing the internal standard, LPA 17:0. After centrifugation, the corresponding supernatant is injected on a C18 column. Analytes are eluted out of the column under isocratic conditions. An API5500 QTRAP mass spectrometer (ABSciex™) is used for the detection of LPA 18:2. No calibration curve is prepared for LPA 18:2, however relative quantities are evaluated based on the peak area.

IC50	SMILES
> 1000 nM	CCc1nc2ccc(C3CCN(S(C)(=O)=O)CC3)cn2c1N(C)c1nc(-c2ccc(F)cc2)cs1 [Compound 80, N-(2-ethyl-6-(1-(methylsulfonyl)piperidin-4-yl)imidazo[1,2-a]pyridin-3-yl)-4-(4-fluorophenyl)-N-methylthiazol-2-amine]
> 1000 nM	CCc1nc2ccc(C3CCN(CC(=O)N4CC(O)C4)CC3)cn2c1N(C)c1nc(-c2ccc(F)cc2)cs1 [Compound 110, 2-(4-(2-ethyl-3-((4-(4-fluorophenyl)thiazol-2-yl)(methyl)amino)imidazo[1,2-a]pyridin-6-yl)piperidin-1-yl)-1-(3-hydroxyazetidin-1-yl)ethanone]

Tested on: LPA 18:2
Assay: Rat whole blood (plasma) LPA assay
Format: biochemical
Details: 2 h at 37° C., LPA 18:2 by LC-MS/MS
Experimental: as §1, with “Whole blood” for “Blood”, “rats or mouse by exsanguinations on” for “healthy volunteers who gave informed consent into”, “tube,” for “tubes by venipuncture,”, “after centrifugation” for “gently inverted several times to prevent clotting. Tubes are centrifuged”, “C.,” for “C. then”
as §2

IC50	SMILES
> 1000 nM	CCc1nc2ccc(N3CCN(Cc4ncc[nH]4)CC3)cn2c1N(C)c1nc(-c2ccc(F)cc2)cs1 [Compound 226, N-(6-(4-((1H-imidazol-2-yl)methyl)piperazin-1-yl)-2-ethylimidazo[1,2-a]pyridin-3-yl)-4-(4-fluorophenyl)-N-methylthiazol-2-amine]
0.01 to 100 nM	CCc1nc2c(F)cc(N3CCN(CC(=O)N4CC(O)C4)CC3)cn2c1N(C)c1nc(-c2ccc(F)cc2)c(C#N)s1 [Compound 12, 2-((2-ethyl-8-fluoro-6-(4-(2-(3-hydroxyazetidin-1-yl)-2-oxoethyl)piperazin-1-yl)imidazo[1,2-a]pyridin-3-yl)(methyl)amino)-4-(4-fluorophenyl)thiazole-5-carbonitrile]
> 1000 nM	CCc1nc2ccc(N3CCN(S(C)(=O)=O)CC3)cn2c1N(C)c1nc(-c2ccc(Cl)cc2)ns1 [Compound 188, 3-(4-chlorophenyl)-N-(2-ethyl-6-(4-(methylsulfonyl)piperazin-1-yl)imidazo[1,2-a]pyridin-3-yl)-N-methyl-1,2,4-thiadiazol-5-amine]
> 1000 nM	CCc1nc2ccc(C3CCN(CC(=O)N4CC(O)C4)CC3)cn2c1N(C)c1nc(-c2ccc(F)cc2)cs1 [Compound 110, 2-(4-(2-ethyl-3-((4-(4-fluorophenyl)thiazol-2-yl)(methyl)amino)imidazo[1,2-a]pyridin-6-yl)piperidin-1-yl)-1-(3-hydroxyazetidin-1-yl)ethanone]
0.01 to 100 nM	CCc1nc2c(F)cc(N3CCN(CC(=O)NC)CC3)cn2c1N(C)c1nc(-c2ccc(F)cc2)c(C#N)s1 [Compound 13, 2-(4-(3-((5-cyano-4-(4-fluorophenyl)thiazol-2-yl)(methyl)amino)-2-ethyl-8-fluoroimidazo[1,2-a]pyridin-6-yl)piperazin-1-yl)-N-methylacetamide]
> 1000 nM	CCc1nc2ccc(N3CCS(=O)(=O)CC3)cn2c1N(C)c1nc(-c2ccc(F)cc2)cs1 [Compound 182, 4-(2-ethyl-3-((4-(4-fluorophenyl)thiazol-2-yl)(methyl)amino)imidazo[1,2-a]pyridin-6-yl)-thiomorpholine 1,1-dioxide]
> 1000 nM	CCc1nc2ccc(C3CCN(S(=O)(=O)CCN4CCOCC4)CC3)cn2c1N(C)c1nc(-c2ccc(F)cc2)cs1 [Compound 91]
0.01 to 100 nM	CN(C)C(=O)CN1CCC(c2ccc3nc(CCC#N)c(N(C)c4nc(-c5ccc(F)cc5)cs4)n3c2)CC1 [Compound 174, 2-(4-(2-(2-cyanoethyl)-3-((4-(4-fluorophenyl)thiazol-2-yl)(methyl)amino)imidazo[1,2-a]pyridin-6-yl)piperidin-1-yl)-N,N-dimethylacetamide]
0.01 to 100 nM	CCc1nc2ccc(C3CCN(CC(=O)N4CC[C@H](O)C4)CC3)cn2c1N(C)c1nc(-c2ccc(F)cc2)c(C#N)s1 [Compound 143, (S)-2-((2-ethyl-6-(1-(2-(3-hydroxypyrrolidin-1-yl)-2-oxoethyl)piperidin-4-yl)imidazo[1,2-a]pyridin-3-yl)(methyl)amino)-4-(4-fluorophenyl)thiazole-5-carbonitrile]
> 1000 nM	CCc1nc2ccc(C3=CCN(S(C)(=O)=O)CC3)cn2c1N(C)c1nc(-c2ccc(F)cc2)cs1 [Compound 66, N-(2-ethyl-6-(1-(methylsulfonyl)-1,2,3,6-tetrahydropyridin-4-yl)imidazo[1,2-a]pyridin-3-yl)-4-(4-fluorophenyl)-N-methylthiazol-2-amine]
> 1000 nM	CCc1nc2ccc(N3CCN(C(=O)[C@H](C)O)CC3)cn2c1N(C)c1nc(-c2ccc(F)cc2)cs1 [Compound 203, (S)-1-(4-(2-ethyl-3-((4-(4-fluorophenyl)thiazol-2-yl)(methyl)amino)imidazo[1,2-a]pyridin-6-yl)piperazin-1-yl)-2-hydroxypropan-1-one]
> 1000 nM	CCc1nc2ccc(C3CCN(S(=O)(=O)CCCN(C)C)CC3)cn2c1N(C)c1nc(-c2ccc(F)cc2)c(CO)s1 [Compound 149, (2-((6-(1-(3-(dimethylamino)propylsulfonyl)piperidin-4-yl)-2-ethylimidazo[1,2-a]pyridin-3-yl)(methyl)amino)-4-(4-fluorophenyl)thiazol-5-yl)]
0.01 to 100 nM	CCc1nc2ccc(C3CCN(S(C)(=O)=O)CC3)cn2c1N(C)c1nc(-c2ccc(F)cc2)c(C#N)s1 [Compound 136, 2-((2-ethyl-6-(1-(methylsulfonyl)piperidin-4-yl)imidazo[1,2-a]pyridin-3-yl)(methyl)amino)-4-(4-fluorophenyl)thiazole-5-carbonitrile]
> 1000 nM	CCc1nc2ccc(N3CCN(Cc4cnc[nH]4)CC3)cn2c1N(C)c1nc(-c2ccc(F)cc2)cs1 [Compound 192, N-(6-(4-((1H-imidazol-5-yl)methyl)piperazin-1-yl)-2-ethylimidazo[1,2-a]pyridin-3-yl)-4-(4-fluorophenyl)-N-methylthiazol-2-amine]
0.01 to 100 nM	CCc1nc2ccc(N3CCN(CC(=O)N(C)C)CC3)cn2c1N(C)c1nc(-c2ccc(F)cc2)c(C#N)s1 [Compound 140, 2-(4-(3-((5-cyano-4-(4-fluorophenyl)thiazol-2-yl)(methyl)amino)-2-ethylimidazo[1,2-a]pyridin-6-yl)piperazin-1-yl)-N,N-dimethylacetamide]
